Experimental data taken from patent US7626042B2, “O-substituted hydroxyaryl derivatives” (Institute of Medicinal Molecular Design, Inc., priority 2002, dated 2009).

Test system: NF-κB activation
Assay: Inhibitory activity against NF-κB activation, luciferase reporter assay under TNF-α stimulation
Type: cell-based, human
Settings: HepG2 cells, TNF-α 40 ng/ml, 4 hours; for inhibition at 1 µg/mL / inhibition at 10 µg/mL: Homo sapiens, read-out: Inhibitory Ratio of NF-κ B Activation(%)
Experimental: Inhibitory activity against NF-κB activation was measured by referring to the method of Hill et al. (Cell, (USA), in 1993, Vol. 73, No. 2, p. 395-406). Using a transfection reagent(Effectene; QIAGEN), the human hepatoma cell strain HepG2 was transfected with a plasmid (pNFκ Luc Reporter Plasmid; STRATAGENE) integrated with an oligonucleotide having five tandem copies of NF-κB binding sequences(TGGGGACTTTCCGC) on a upstream region of firefly luciferase gene (Luc) according to the QIAGEN's protocol, and the cells were incubated for 6 to 24 hours. Then the cells were cultured for 4 hours after the addition of TNF-α (40 ng/ml) in the presence of a test compound, and intracellular luciferase activity was measured by using PicaGene LT (TOYO INK MFG Co., Ltd.) and a chemical luminescence measurement apparatus(SPECTRAFluor Plus; TECAN). The inhibitory ratio was measured as a ratio relative to a value of the luciferase activity in the absence of the test compound.

Compound	inhibition at 1 µg/mL (Drug Concentration 1 μg/mL) [%]	inhibition at 10 µg/mL (Drug Concentration 10 μg/mL) [%]	Inhibitory Ratio of NF-κ B Activation(%) (Drug Concentration 1 μg/mL)	Inhibitory Ratio of NF-κ B Activation(%) (Drug Concentration 10 μg/mL)
CC(C)(C)C(=O)Oc1ccc(Cl)cc1C(=O)Nc1cc(C(F)(F)F)cc(C(F)(F)F)c1 [Compound 1, 5-Chloro-2-pivaloyloxy-N-[3,5-bis(trifluoromethyl)phenyl]benzamide]	94.9	95.8	–	–
CCCCC(=O)Oc1ccc(Cl)cc1C(=O)Nc1cc(C(F)(F)F)cc(C(F)(F)F)c1 [Compound 2]	–	–	97.9	98.6
CCCCCCCCCC(=O)Oc1ccc(Cl)cc1C(=O)Nc1cc(C(F)(F)F)cc(C(F)(F)F)c1 [Compound 3]	–	–	96.1	98.4
O=C(Oc1ccc(Cl)cc1C(=O)Nc1cc(C(F)(F)F)cc(C(F)(F)F)c1)c1ccccc1 [Compound 4]	–	–	94.2	97.5
CC(=O)Oc1ccccc1C(=O)Oc1ccc(Cl)cc1C(=O)Nc1cc(C(F)(F)F)cc(C(F)(F)F)c1 [Compound 5]	–	–	96.1	98.0
O=C(Oc1ccc(Cl)cc1C(=O)Nc1cc(C(F)(F)F)cc(C(F)(F)F)c1)c1cccnc1 [Compound 6]	–	–	94.4	98.1
O=C(Oc1ccc(Cl)cc1C(=O)Nc1cc(C(F)(F)F)cc(C(F)(F)F)c1)c1ccncc1 [Compound 7]	–	–	93.9	98.8
O=C(Cc1ccccc1)Oc1ccc(Cl)cc1C(=O)Nc1cc(C(F)(F)F)cc(C(F)(F)F)c1 [Compound 8]	–	–	95.0	97.9
O=C(Cc1ccc2c(c1)OCO2)Oc1ccc(Cl)cc1C(=O)Nc1cc(C(F)(F)F)cc(C(F)(F)F)c1 [Compound 9]	–	–	94.6	97.3
COCC(=O)Oc1ccc(Cl)cc1C(=O)Nc1cc(C(F)(F)F)cc(C(F)(F)F)c1 [Compound 10]	–	–	95.3	97.4
CC(=O)OCC(=O)Oc1ccc(Cl)cc1C(=O)Nc1cc(C(F)(F)F)cc(C(F)(F)F)c1 [Compound 11]	–	–	97.3	99.2
O=C(COc1ccccc1)Oc1ccc(Cl)cc1C(=O)Nc1cc(C(F)(F)F)cc(C(F)(F)F)c1 [Compound 12]	–	–	95.5	97.5
O=C(COc1ccc(Cl)cc1)Oc1ccc(Cl)cc1C(=O)Nc1cc(C(F)(F)F)cc(C(F)(F)F)c1 [Compound 13]	–	–	96.6	98.7
O=C(COc1cccc(Cl)c1Cl)Oc1ccc(Cl)cc1C(=O)Nc1cc(C(F)(F)F)cc(C(F)(F)F)c1 [Compound 14]	–	–	98.9	99.4
CC(Oc1ccccc1)C(=O)Oc1ccc(Cl)cc1C(=O)Nc1cc(C(F)(F)F)cc(C(F)(F)F)c1 (centres unmarked) [Compound 15]	–	–	97.9	99.1
CC(C)(Oc1ccc(Cl)cc1)C(=O)Oc1ccc(Cl)cc1C(=O)Nc1cc(C(F)(F)F)cc(C(F)(F)F)c1 [Compound 16]	–	–	96.6	98.4
CC(C)(C)OC(=O)CC(=O)Oc1ccc(Cl)cc1C(=O)Nc1cc(C(F)(F)F)cc(C(F)(F)F)c1 [Compound 17]	–	–	97.0	96.8
O=C(CCC(=O)Oc1ccc(Cl)cc1C(=O)Nc1cc(C(F)(F)F)cc(C(F)(F)F)c1)OCc1ccccc1 [Compound 18]	–	–	95.4	98.1
O=C(CCC(=O)N1CCCCC1)Oc1ccc(Cl)cc1C(=O)Nc1cc(C(F)(F)F)cc(C(F)(F)F)c1 [Compound 19]	–	–	97.9	98.8

Compound	inhibition at 1 µg/mL (Drug Concentration 1 μg/mL) [%]	inhibition at 10 µg/mL (Drug Concentration 10 μg/mL) [%]	Inhibitory Ratio of NF-κ B Activation(%) (Drug Concentration 1 μg/mL)	Inhibitory Ratio of NF-κ B Activation(%) (Drug Concentration 10 μg/mL)
CC(=O)NCC(=O)Oc1ccc(Cl)cc1C(=O)Nc1cc(C(F)(F)F)cc(C(F)(F)F)c1 [Compound 20]	–	–	94.8	98.1
O=C(CNC(=O)OCc1ccccc1)Oc1ccc(Cl)cc1C(=O)Nc1cc(C(F)(F)F)cc(C(F)(F)F)c1 [Compound 21]	–	–	96.7	98.7
CC(C)(C)OC(=O)NCC(=O)Oc1ccc(Cl)cc1C(=O)Nc1cc(C(F)(F)F)cc(C(F)(F)F)c1 [Compound 22, 2-[N-(tert-butoxycarbonyl)glycyl]oxy-5-chloro-N-[3,5-bis(trifluoromethyl)phenyl]-benzamide]	35.3	98.7	–	–
Cl.NCC(=O)Oc1ccc(Cl)cc1C(=O)Nc1cc(C(F)(F)F)cc(C(F)(F)F)c1 [Compound 23]	–	–	19.8	97.3
CC(C)[C@H](NC(=O)OC(C)(C)C)C(=O)Oc1ccc(Cl)cc1C(=O)Nc1cc(C(F)(F)F)cc(C(F)(F)F)c1 [Compound 24, 2-[N-(tert-butoxycarbonyl)-L-valyl]oxy-5-chloro-N-[3,5-bis(trifluoromethyl)phenyl]-benzamide]	96.3	96.8	–	–
CC(C)[C@H](N)C(=O)Oc1ccc(Cl)cc1C(=O)Nc1cc(C(F)(F)F)cc(C(F)(F)F)c1.Cl [Compound 25]	–	–	93.4	97.2
CC(C)C[C@H](NC(=O)OC(C)(C)C)C(=O)Oc1ccc(Cl)cc1C(=O)Nc1cc(C(F)(F)F)cc(C(F)(F)F)c1 [Compound 26, 2-[N-(tert-butoxycarbonyl)-L-leucyl]oxy-5-chloro-N-[3,5-bis(trifluoromethyl)phenyl]-benzamide]	97.8	98.9	–	–
CC(C)C[C@H](N)C(=O)Oc1ccc(Cl)cc1C(=O)Nc1cc(C(F)(F)F)cc(C(F)(F)F)c1.Cl [Compound 27]	–	–	95.8	99.2
CC(C)(C)OC(=O)N[C@@H](Cc1ccccc1)C(=O)Oc1ccc(Cl)cc1C(=O)Nc1cc(C(F)(F)F)cc(C(F)(F)F)c1 [Compound 28, 2-[N-(tert-butoxycarbonyl)-L-phenylalanyl]oxy-5-chloro-N-[3,5-bis(trifluoromethyl)-phenyl]benzamide]	96.4	98.4	–	–
Cl.N[C@@H](Cc1ccccc1)C(=O)Oc1ccc(Cl)cc1C(=O)Nc1cc(C(F)(F)F)cc(C(F)(F)F)c1 [Compound 29]	–	–	90.2	97.5
CC(C)(C)OC(=O)C[C@H](NC(=O)OC(C)(C)C)C(=O)Oc1ccc(Cl)cc1C(=O)Nc1cc(C(F)(F)F)cc(C(F)(F)F)c1 [Compound 30]	–	–	96.4	97.0
CC(C)(C)OC(=O)CC[C@H](NC(=O)OC(C)(C)C)C(=O)Oc1ccc(Cl)cc1C(=O)Nc1cc(C(F)(F)F)cc(C(F)(F)F)c1 [Compound 31, 2-[N-(tert-butoxycarbonyl)-γ-O-(tert-butyl)-α-L-glutamyl]oxy-5-chloro-N-[3,5-bis(trifluoromethyl)phenyl]benzamide]	–	–	97.2	97.2
N[C@@H](CCC(=O)O)C(=O)Oc1ccc(Cl)cc1C(=O)Nc1cc(C(F)(F)F)cc(C(F)(F)F)c1 [Compound 32]	–	–	98.0	98.8
CC(C)(C)OC(=O)NCCCC[C@H](NC(=O)OC(C)(C)C)C(=O)Oc1ccc(Cl)cc1C(=O)Nc1cc(C(F)(F)F)cc(C(F)(F)F)c1 [Compound 33, 5-chloro-2-[N^α,N^ε-di(tert-butoxycarbonyl)-L-lysyl]oxy-N-[3,5-bis(trifluoromethyl)phenyl]benzamide]	96.6	98.6	–	–
Cl.Cl.NCCCC[C@H](N)C(=O)Oc1ccc(Cl)cc1C(=O)Nc1cc(C(F)(F)F)cc(C(F)(F)F)c1 [Compound 34]	–	–	51.9	99.5
CC(C)C[C@H](NC(=O)[C@H](Cc1ccccc1)NC(=O)OC(C)(C)C)C(=O)Oc1ccc(Cl)cc1C(=O)Nc1cc(C(F)(F)F)cc(C(F)(F)F)c1 [Compound 35, 2-{N-[N-(tert-butoxycarbonyl)-L-phenylalanyl]-L-leucyl}oxy-5-chloro-N-[3,5-bis(trifluoromethyl)phenyl]benzamide]	96.9	98.3	–	–
CC(C)C[C@H](NC(=O)[C@@H](N)Cc1ccccc1)C(=O)Oc1ccc(Cl)cc1C(=O)Nc1cc(C(F)(F)F)cc(C(F)(F)F)c1.Cl [Compound 36]	–	–	97.8	98.7
CC(C)C[C@H](NC(=O)[C@H](CC(=O)OC(C)(C)C)NC(=O)OC(C)(C)C)C(=O)Oc1ccc(Cl)cc1C(=O)Nc1cc(C(F)(F)F)cc(C(F)(F)F)c1 [Compound 37, 2-{N-[N-(tert-butoxycarbonyl)-β-O-(tert-butyl)-α-L-aspartyl]-L-leucyl}oxy-5-chloro-N-[3,5-bis(trifluoromethyl)phenyl]benzamide]	–	–	96.6	98.1
